Assay results reported in patent publication US20120316200A1, “PYRIDONE DERIVATIVES” (Merck Sharp & Dohme Corp., priority 2010, published 2012).

Target: T1, human MCH-1R (Homo sapiens, UniProt Q99705)
T1 construct: expressed in transfected cells; host or cells: CHO-K1 (American Type Culture Collection)
Experiment: MCH-1R binding inhibition ([125I]MCH binding to membranes of MCH-1R expression CHO-K1 cells)
Details: 50 pM [125I]MCH, membranes of CHO-K1 cells expressing human MCH-1R, 25° C., one hour, pH 7.4; read-out: IC50 (50% inhibition concentration for specific [125I]MCH binding)
Protocol: A cDNA sequence encoding human MCH-1R [FEBS Letters, Vol. 398, 253 (1996); Biochimica et Biophisica Acta, Vol. 1401, 216 (1998)] was cloned to a plasmid vector pEF/myc/cyto (manufactured by Invitrogen). The obtained expression vector was transfected to a host cell CHO-K1 (American Type Culture Collection) using Lipofectamine Plus reagent (manufactured by Life Technology) to provide MCH-1R expression cells.
Membrane samples prepared from the MCH-1R expression cells were incubated with a test compound and 50 pM [^125I]MCH (manufactured by NEN) in an assay buffer (50 mM Tris buffer containing 10 mM magnesium chloride, 2 mM ethylenediamine tetraacetate, 0.01% bacitracin, and 0.2% bovine serum albumin; pH 7.4) at 25° C. for one hour, followed by filtration through a glass filter GF/C (manufactured by Wattman). The glass filter was washed with 50 mM Tris buffer (pH 7.4) containing 10 mM magnesium chloride, 2 mM ethylenediamine tetraacetate, and 0.04% Tween-20, and then the radioactivity on the glass filter was determined. Non-specific binding was measured in the presence of 1 μM human MCH, and, with respect to each test compound, 50% inhibition concentration (IC50 value) for specific [^125I]MCH binding was determined.

T1 sequence (Q99705 whole entry): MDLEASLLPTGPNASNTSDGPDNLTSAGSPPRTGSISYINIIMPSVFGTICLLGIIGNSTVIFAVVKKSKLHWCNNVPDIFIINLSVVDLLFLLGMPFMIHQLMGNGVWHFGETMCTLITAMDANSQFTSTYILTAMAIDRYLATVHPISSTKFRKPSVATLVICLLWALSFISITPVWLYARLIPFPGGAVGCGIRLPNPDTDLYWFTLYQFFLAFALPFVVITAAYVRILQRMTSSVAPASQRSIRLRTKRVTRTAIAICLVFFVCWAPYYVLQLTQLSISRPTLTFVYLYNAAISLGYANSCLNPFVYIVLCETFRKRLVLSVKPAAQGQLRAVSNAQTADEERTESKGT

| SMILES | IC50 |
| --- | --- |
| CC(C)(O)c1ccc2cc(-n3ccc(OCc4ccc(F)cc4)cc3=O)ccc2n1 [Example 7, 4-(4-Fluorobenzyloxy)-1-[2-(2-hydroxypropan-2-yl)quinolin-6-yl]pyridin-2-(1H)-one] | 38 nM |
| COc1cc(-n2ccc(OCc3ccc(F)cc3)cc2=O)ccc1OCCC(C)(C)O [Example 8, 4-(4-Fluorobenzyloxy)-1-[4-(3-hydroxy-3-methylbutoxy)-3-methoxyphenyl]pyridin-2-(1H)-one] | 84 nM |
| CC(C)(O)CCOc1ccc(-n2ccc(OCc3ccc(F)cc3)cc2=O)cc1 [Example 9, 4-[(4-Fluorobenzyl)oxy]-1-[4-(3-hydroxy-3-methylbutoxy)phenyl]pyridin-2 (1H)-one] | 23 nM |
| COc1cc(-n2ccc(OCc3ccc(Cl)cn3)cc2=O)ccc1OC[C@H](O)C1CC1 [Example 21, 4-[(5-chloropyridin-2-yl)methoxy]-1-{4-[(2R)-2-cyclopropyl-2-hydroxyethoxy]-3-methoxyphenyl}pyridin-2(1H)-one] | 33 nM |
| O=c1cc(OCc2ccc(Cl)cn2)ccn1-c1ccc(OC[C@H](O)C2CC2)cc1 [Example 22] | 101 nM |
| COc1cc(-n2ccc(OCc3ccc(Cl)cn3)cc2=O)ccc1OC[C@@H](O)C1CC1 [Example 24, 4-[(5-chloropyridin-2-yl)methoxy]-1-{4-[(2S)-2-cyclopropyl-2-hydroxyethoxy]-3-methoxyphenyl}pyridin-2(1H)-one] | 36 nM |
| O=c1cc(OCc2ccc(Cl)cn2)ccn1-c1ccc(OC[C@@H](O)C2CC2)cc1 [Example 26, 4-[(5-chloropyridin-2-yl)methoxy]-1-{4-[(2S)-2-cyclopropyl-2-hydroxyethoxy]phenyl}pyridin-2(1H)-one] | 91 nM |

The remaining lines, values ahead:

| IC50 | SMILES |
| --- | --- |
| 11 nM | Cc1cc(-n2ccc(OCc3ccc(F)cc3)cc2=O)ccc1OCC(C)(C)O [Example 2, 4-[(4-Fluorobenzyloxy)]-1-[4-(2-hydroxy-2-methylpropoxy)-3-methylphenyl]pyridin-2(1H)-one] |
| 11 nM | Cc1cc(-n2ccc(OCc3ccc(F)cc3)cc2=O)ccc1OCC1(O)CC1 [Example 5, 4-[(4-Fluorobenzyl)oxy]-1-{4-[(1-hydroxycyclopropyl)methoxy]-3-methylphenyl}pyridin-2(1H)-one] |
| 63 nM | CC(C)(CO)COc1ccc(-n2ccc(OCc3ccc(F)cc3)cc2=O)cc1 [Example 6, 4-[(4-Fluorobenzyl)oxy]-1-[4-(3-hydroxy-2,2-dimethylpropoxy)phenyl]pyridin-2(1H)-one] |
| 11 nM | CC(C)(O)COc1ccc(-n2ccc(OCc3ccc(F)cc3)cc2=O)cc1Cl [Example 10, 1-[3-chloro-4-(2-hydroxy-2-methylpropoxy)phenyl]-4-[(4-fluorobenzyl)oxy]pyridin-2(1H)-one] |
| 97 nM | CC(C)(O)COc1ccc(-n2ccc(OCc3ccc(F)cc3)cc2=O)cc1F [Example 12, 4-[(4-fluorobenzyl)oxy]-1-[3-fluoro-4-(2-hydroxy-2-methylpropoxy)phenyl]pyridin-2(1H)-one] |
| 23 nM | Cc1cc(-n2ccc(OCc3ccc(F)cc3)cc2=O)ccc1OCC(=O)OC(C)C [Example 18, propan-2-yl (4-{4-[(4-fluorobenzyl)oxy]-2-oxopyridin-1(2H)-yl}-2-methylphenoxy)acetate] |
| 31 nM | COC(=O)COc1ccc(-n2ccc(OCc3ccc(F)cc3)cc2=O)cc1C [Example 19, methyl (4-{4-[(4-fluorobenzyl)oxy]-2-oxopyridin-1(2H)-yl}-2-methylphenoxy)acetate] |
| 61 nM | COC(=O)COc1ccc(-n2ccc(OCc3ccc(F)cc3)cc2=O)cc1OC [Example 20, methyl (4-{4-[(4-fluorobenzyl)oxy]-2-oxopyridin-1(2H)-yl}-2-methoxyphenoxy)acetate] |
